In ChEMBL document CHEMBL3132769, “Fragment growing to retain or alter the selectivity of anchored kinase hinge-binding fragments” (Medchemcomm, 2014) one finds inhibition data, which are given here for 6 compounds.

Test [1] has as its target T1, Serine/threonine-protein kinase Sgk2 (Homo sapiens) (UniProt Q9HBY8).
T1 sequence (whole entry): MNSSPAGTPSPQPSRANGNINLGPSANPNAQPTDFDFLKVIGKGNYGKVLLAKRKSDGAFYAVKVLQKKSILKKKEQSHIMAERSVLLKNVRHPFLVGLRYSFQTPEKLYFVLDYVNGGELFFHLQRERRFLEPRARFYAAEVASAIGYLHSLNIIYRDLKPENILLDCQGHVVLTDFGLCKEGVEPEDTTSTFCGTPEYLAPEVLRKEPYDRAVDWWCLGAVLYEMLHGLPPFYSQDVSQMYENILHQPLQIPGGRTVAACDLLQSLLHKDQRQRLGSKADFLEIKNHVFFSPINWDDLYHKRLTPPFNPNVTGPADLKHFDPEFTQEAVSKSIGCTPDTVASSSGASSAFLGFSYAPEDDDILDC
The experiment in a line: Inhibition of human full length SGK2 expressed in baculovirus assessed as substrate phosphorylation using fluorescence-labelled peptides as substrate at 2 uM after 90 mins by microfluidic peptide phosphorylation assay.

Test [2] has as its target T2, Cytoplasmic tyrosine-protein kinase BMX (Homo sapiens) (UniProt P51813).
T2 sequence (whole entry): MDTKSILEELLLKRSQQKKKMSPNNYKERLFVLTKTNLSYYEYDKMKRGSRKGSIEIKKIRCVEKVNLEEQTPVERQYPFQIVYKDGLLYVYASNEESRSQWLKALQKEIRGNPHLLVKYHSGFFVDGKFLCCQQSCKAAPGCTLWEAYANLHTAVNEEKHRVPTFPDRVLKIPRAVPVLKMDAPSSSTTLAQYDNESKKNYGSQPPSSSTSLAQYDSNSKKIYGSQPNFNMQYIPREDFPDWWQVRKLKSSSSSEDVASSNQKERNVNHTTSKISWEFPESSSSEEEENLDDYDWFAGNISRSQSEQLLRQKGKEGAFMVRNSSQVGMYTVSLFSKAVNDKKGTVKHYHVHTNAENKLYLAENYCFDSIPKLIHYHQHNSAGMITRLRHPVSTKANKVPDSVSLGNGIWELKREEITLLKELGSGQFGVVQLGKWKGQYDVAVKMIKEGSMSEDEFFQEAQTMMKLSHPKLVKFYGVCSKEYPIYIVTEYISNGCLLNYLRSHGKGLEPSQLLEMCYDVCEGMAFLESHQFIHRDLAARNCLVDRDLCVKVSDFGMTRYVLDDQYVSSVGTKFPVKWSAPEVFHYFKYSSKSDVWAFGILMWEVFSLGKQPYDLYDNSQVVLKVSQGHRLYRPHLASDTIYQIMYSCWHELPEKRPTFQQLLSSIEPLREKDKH
Kind of test: Inhibition of human full length BMX expressed in baculovirus assessed as substrate phosphorylation using fluorescence-labelled peptides as substrate at 0.2 uM after 90 mins by microfluidic peptide phosphorylation assay.

Test [3] deals with Tyrosine-protein kinase Fyn (Homo sapiens) (UniProt P06241). Kind of test: Inhibition of human full length FYN expressed in baculovirus assessed as substrate phosphorylation using fluorescence-labelled peptides as substrate at 0.2 uM after 90 mins by microfluidic peptide phosphorylation assay.
In test [4] the target is Ribosomal protein S6 kinase alpha-1 (Homo sapiens) (UniProt Q15418). The experiment in a line: Inhibition of human full length RSK1 expressed in baculovirus assessed as substrate phosphorylation using fluorescence-labelled peptides as substrate at 8 uM after 90 mins by microfluidic peptide phosphorylation assay.
The target of test [5] is T3, Mitogen-activated protein kinase 13 (Homo sapiens) (UniProt O15264).
T3 sequence (whole entry): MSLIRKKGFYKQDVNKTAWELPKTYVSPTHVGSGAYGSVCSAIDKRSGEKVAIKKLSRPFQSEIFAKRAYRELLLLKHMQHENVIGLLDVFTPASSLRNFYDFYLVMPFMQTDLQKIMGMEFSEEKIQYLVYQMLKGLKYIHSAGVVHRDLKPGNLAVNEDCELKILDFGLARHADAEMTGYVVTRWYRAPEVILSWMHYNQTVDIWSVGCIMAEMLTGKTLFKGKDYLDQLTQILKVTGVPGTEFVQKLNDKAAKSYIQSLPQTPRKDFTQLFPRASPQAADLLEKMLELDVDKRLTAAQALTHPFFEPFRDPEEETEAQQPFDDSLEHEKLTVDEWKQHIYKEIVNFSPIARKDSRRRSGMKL
Kind of test: Inhibition of human full length p38 delta expressed in Escherichia coli cell assessed as substrate phosphorylation using fluorescence-labelled peptides as substrate at 70 uM after 90 mins by microfluidic peptide phosphorylation assay.

The target of test [6] is Calcium/calmodulin-dependent protein kinase type II subunit beta (Homo sapiens) (UniProt Q13554). Kind of test: Inhibition of human CAMK2 beta catalytic domain expressed in baculovirus assessed as substrate phosphorylation using fluorescence-labelled peptides as substrate at 70 uM after 90 mins by microfluidic peptide phosphorylation assay.
Test [7] has as its target Insulin receptor (Homo sapiens) (UniProt P06213). The experiment in a line: Inhibition of human INSR catalytic domain expressed in baculovirus assessed as substrate phosphorylation using fluorescence-labelled peptides as substrate at 420 uM after 90 mins by microfluidic peptide phosphorylation assay.
The target of test [8] is Serine/threonine-protein kinase MARK2 (Homo sapiens) (UniProt Q7KZI7). Kind of test: Inhibition of human full length MARK2 expressed in baculovirus assessed as substrate phosphorylation using fluorescence-labelled peptides as substrate at 1000 uM after 90 mins by microfluidic peptide phosphorylation assay.
Test [9] concerns the target Tyrosine-protein kinase Fer (Homo sapiens) (UniProt P16591). The experiment in a line: Inhibition of human FER catalytic domain expressed in baculovirus assessed as substrate phosphorylation using fluorescence-labelled peptides as substrate at 1000 uM after 90 mins by microfluidic peptide phosphorylation assay.
Test [10] deals with T4, cGMP-dependent protein kinase 1 (Homo sapiens) (UniProt Q13976).
T4 sequence (whole entry): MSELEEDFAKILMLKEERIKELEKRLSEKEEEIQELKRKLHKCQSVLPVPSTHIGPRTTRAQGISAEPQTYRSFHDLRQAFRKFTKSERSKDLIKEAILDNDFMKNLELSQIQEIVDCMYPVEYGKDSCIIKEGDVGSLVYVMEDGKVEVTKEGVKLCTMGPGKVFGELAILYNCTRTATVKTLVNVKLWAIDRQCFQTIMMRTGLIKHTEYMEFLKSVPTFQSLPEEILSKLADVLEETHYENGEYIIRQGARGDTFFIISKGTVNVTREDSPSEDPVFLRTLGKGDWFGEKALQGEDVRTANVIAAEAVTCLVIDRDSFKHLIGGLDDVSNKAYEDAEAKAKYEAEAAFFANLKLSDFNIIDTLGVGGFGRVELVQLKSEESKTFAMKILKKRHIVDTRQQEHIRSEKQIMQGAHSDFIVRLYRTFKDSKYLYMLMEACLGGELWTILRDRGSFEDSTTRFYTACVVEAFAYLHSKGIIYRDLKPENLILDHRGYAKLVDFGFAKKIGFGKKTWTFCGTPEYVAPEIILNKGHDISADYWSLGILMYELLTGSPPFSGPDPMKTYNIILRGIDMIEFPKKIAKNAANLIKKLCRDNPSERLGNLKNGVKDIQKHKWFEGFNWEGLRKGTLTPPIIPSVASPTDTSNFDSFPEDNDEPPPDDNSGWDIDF
Kind of test: Inhibition of human full length PKG-1beta expressed in baculovirus assessed as substrate phosphorylation using fluorescence-labelled peptides as substrate at 1000 uM after 90 mins by microfluidic peptide phosphorylation assay.

Chain of Tyrosine-protein kinase Fer (Homo sapiens) (P16591 whole entry, looked up, the tested form may be a part): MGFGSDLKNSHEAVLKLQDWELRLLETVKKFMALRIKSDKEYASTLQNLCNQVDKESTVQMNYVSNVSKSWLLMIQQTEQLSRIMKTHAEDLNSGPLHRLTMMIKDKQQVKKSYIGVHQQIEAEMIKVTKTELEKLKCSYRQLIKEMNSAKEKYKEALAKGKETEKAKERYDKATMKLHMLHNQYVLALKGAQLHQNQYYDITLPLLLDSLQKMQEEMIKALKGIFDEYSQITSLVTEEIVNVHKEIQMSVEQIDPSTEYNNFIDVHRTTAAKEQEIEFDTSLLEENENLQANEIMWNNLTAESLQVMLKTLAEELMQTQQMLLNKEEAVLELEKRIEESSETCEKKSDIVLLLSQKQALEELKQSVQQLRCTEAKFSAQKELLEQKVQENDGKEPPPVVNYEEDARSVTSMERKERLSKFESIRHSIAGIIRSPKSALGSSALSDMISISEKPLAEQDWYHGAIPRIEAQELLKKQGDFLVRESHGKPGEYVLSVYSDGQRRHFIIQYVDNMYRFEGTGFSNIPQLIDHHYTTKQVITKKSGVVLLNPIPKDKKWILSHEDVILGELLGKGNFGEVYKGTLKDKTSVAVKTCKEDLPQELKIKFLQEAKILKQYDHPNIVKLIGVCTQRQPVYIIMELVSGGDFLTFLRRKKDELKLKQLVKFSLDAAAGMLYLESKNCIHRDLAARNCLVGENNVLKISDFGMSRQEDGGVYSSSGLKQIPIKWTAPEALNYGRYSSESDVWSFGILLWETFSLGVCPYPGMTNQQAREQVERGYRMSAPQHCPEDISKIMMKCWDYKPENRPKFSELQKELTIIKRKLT
Chain of Serine/threonine-protein kinase MARK2 (Homo sapiens) (Q7KZI7 whole entry, the tested form may be a part): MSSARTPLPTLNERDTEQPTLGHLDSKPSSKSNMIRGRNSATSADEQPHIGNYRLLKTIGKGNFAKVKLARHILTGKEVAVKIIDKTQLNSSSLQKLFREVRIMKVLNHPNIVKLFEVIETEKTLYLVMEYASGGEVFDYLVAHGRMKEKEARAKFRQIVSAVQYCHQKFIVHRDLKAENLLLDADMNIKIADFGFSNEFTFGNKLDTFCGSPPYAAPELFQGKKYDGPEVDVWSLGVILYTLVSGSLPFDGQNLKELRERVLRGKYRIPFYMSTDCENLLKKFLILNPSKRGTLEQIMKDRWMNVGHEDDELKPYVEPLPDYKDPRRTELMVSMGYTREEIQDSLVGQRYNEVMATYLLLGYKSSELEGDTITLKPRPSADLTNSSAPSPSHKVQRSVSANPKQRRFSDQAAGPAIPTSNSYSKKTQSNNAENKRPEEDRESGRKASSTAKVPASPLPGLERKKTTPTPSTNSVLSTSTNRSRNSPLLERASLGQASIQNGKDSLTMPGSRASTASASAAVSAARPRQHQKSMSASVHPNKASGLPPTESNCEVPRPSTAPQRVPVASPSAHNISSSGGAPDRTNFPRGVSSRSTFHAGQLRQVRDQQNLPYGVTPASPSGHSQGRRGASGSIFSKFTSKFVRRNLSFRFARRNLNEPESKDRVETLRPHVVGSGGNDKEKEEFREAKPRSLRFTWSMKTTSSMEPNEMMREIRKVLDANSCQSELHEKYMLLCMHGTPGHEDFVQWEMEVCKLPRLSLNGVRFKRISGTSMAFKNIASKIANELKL
Chain of Tyrosine-protein kinase Fyn (Homo sapiens) (P06241 2-537 limits assumed): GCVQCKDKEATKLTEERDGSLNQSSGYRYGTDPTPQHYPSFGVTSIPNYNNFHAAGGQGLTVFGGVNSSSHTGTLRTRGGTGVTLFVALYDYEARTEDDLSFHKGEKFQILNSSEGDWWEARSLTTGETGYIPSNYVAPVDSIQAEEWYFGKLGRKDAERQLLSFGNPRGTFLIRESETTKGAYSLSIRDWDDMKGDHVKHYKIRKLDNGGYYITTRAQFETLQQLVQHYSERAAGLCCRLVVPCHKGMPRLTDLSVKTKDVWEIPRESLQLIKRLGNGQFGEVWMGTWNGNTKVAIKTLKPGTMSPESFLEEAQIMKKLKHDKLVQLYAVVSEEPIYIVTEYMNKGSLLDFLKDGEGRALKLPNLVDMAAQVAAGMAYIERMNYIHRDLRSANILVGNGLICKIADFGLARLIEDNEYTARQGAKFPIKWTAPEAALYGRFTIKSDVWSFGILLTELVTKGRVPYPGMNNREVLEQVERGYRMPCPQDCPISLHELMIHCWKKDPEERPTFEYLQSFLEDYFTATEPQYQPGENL
Chain of Ribosomal protein S6 kinase alpha-1 (Homo sapiens) (Q15418 whole entry): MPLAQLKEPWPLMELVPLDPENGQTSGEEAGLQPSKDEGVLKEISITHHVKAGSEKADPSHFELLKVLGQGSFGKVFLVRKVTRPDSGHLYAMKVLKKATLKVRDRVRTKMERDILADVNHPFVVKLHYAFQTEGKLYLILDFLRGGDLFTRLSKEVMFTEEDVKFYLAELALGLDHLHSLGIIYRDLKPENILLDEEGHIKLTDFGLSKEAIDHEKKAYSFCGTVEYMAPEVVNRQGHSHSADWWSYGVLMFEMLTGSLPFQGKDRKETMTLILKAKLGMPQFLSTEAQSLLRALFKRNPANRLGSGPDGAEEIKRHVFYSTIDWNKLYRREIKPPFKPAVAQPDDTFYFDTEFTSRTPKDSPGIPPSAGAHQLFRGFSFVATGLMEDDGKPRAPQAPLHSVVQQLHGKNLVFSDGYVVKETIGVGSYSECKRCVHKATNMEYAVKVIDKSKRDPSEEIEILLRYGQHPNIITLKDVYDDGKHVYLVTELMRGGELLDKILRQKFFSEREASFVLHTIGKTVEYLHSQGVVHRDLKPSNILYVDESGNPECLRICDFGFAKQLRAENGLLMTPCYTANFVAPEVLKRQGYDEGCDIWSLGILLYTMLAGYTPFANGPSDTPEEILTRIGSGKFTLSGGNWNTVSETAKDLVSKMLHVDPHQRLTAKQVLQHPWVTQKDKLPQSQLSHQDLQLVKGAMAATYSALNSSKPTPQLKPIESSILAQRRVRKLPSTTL
Chain of Calcium/calmodulin-dependent protein kinase type II subunit beta (Homo sapiens) (Q13554 whole entry, the tested form may be a part): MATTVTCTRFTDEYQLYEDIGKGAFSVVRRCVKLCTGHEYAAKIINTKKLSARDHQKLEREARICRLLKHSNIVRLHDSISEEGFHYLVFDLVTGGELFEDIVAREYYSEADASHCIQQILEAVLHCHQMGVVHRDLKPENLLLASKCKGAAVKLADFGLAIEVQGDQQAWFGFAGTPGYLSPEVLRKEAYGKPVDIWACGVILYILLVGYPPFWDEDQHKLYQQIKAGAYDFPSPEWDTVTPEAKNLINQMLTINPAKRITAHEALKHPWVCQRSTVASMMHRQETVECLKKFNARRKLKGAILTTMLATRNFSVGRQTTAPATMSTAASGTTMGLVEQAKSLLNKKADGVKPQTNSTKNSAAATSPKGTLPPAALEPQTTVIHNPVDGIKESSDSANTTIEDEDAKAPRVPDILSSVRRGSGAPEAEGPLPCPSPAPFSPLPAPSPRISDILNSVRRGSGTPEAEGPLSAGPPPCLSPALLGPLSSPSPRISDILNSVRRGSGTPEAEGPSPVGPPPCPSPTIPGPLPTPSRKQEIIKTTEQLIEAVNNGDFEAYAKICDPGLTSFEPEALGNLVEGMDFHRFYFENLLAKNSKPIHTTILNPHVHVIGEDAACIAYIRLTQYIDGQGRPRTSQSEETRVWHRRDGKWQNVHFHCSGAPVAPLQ

The term inhibition denotes the change of the read-out against control, counted positive when it falls. As for `NC1CCN(c2ncnc3[nH]ccc23)CC1`, the inhibition in test [1] is 46.5%. Turning to `Clc1ccc(C2(c3ccc(-c4ncnc5[nH]cnc45)cc3)CCNCC2)cc1`, the inhibition in test [2] amounted to 4%; in [3], 16%. As to `NCC1CCN(c2ncnc3[nH]ccc23)CC1`, the inhibition in [4] was 11.5%.

With `CNCc1ccc(-c2ncnc3[nH]cnc23)cc1`, the results for the inhibition in test [5] and in test [6] were 5% and 6.5%, respectively. Regarding `c1nc(N2CCOCC2)c2nc[nH]c2n1`, the inhibition in test [7] was found to be 8%. In the case of `c1cnc2[nH]ccc2c1`, the inhibition in [8] was 75%; in test [9], 18%; in test [10], 87%.
